A word on the IC50: it is the concentration needed to halve the response being measured.

The text below walks through data of patent US12054497B2, “Substituted heterocyclic fused cyclic compound, preparation method therefor and pharmaceutical use thereof” (GENFLEET THERAPEUTICS (SHANGHAI) INC., priority 2019, dated 2024).

Experiment [1] relates to A549 cells with Kras G12S mutation. As to the kind of experiment: Cell proliferation inhibition experiment, 3D spheroid, CellTiter-Glo (Test Example 1). Type of experiment: cell-based, human. Particulars: 5 days. Put shortly:
(§1)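 NCI-H358 (800 cells/well) and A549 (400 cells/well) grown overnight as 3D spheroids in 2% FBS medium, then exposed to compound dilution series (3.16-fold, 0.1% DMSO) for 5 days. CellTiter-Glo luminescence read; inhibition relative to DMSO and blank, IC50 by four-parameter fit.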
For orientation: ATP-based viability assays read luminescence as a measure of living cells.

In experiment [2] the test system is NCI-H358 cells with Kras G12C mutation. The experiment is described as above. Type of experiment: cell-based, human. Particulars: 5 days. Put shortly:
as §1

Experiment [3] relates to MIA PaCa-2 cells with Kras G12C mutation. As to the kind of experiment: Cell proliferation inhibition experiment, 3D spheroid, CellTiter-Glo (Test Example 3). In kind it is cell-based, human. Particulars: 5 days, read-out: MIA-PaCa2 IC50. Put shortly: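 MIA PaCa-2 spheroids (200 cells/well) were formed overnight, then exposed for 5 days to compounds in 3.16-fold dilutions at 0.1% DMSO. Viability was read by CellTiter-Glo luminescence, and inhibition was normalised to DMSO control and medium blank. IC50 came from a four-parameter fit.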

In another experiment the target is KRas G12C (Homo sapiens (Human), UniProt P01116, G12C). As to the kind of experiment: Nucleotide exchange assay (NEA)-HTRF, SOS1 catalyzed displacement of GDP by GTP (Test Example 4). Type of experiment: biochemical. Put shortly:
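His-tagged KRas G12C preloaded with DY647-GDP (40 nM working solution, with anti-His Tb) was preincubated 15 min with compound at 20 °C. SOS1/GTP (0.2 μM/200 μM working solution) was then added for 2 h in the dark. The HTRF 665/615 nm ratio gave inhibition relative to no-compound control and SOS1/GTP-free T0, with a four-parameter IC50 fit.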
In general terms: In TR-FRET formats the signal depends on donor and acceptor labels being close together.

[4] abbreviates: Homo sapiens, MIA PaCa-2, 120 h.

Read-outs that look alike come from different tables or passages of the source.

Sequence of KRas G12C (P01116-2 other isoform, or with tags, fused parts or gaps G12C): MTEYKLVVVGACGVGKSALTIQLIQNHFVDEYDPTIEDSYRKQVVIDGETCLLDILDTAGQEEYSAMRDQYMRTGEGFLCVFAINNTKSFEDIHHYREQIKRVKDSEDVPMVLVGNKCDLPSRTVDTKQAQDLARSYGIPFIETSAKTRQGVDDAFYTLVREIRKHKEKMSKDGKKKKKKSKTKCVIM

Consider `C=CC(=O)N1CCN2c3c(c(=O)n(-c4c(C(C)C)ncnc4C(C)C)c4c(F)c(-c5c(O)cccc5F)c(Cl)cc34)NC(=O)[C@H]2C1` (single isomer, unassigned) [Compound Z37-1], for which the IC50 in experiment [1] was > 30000 nM; in experiment [2] it was 0.7 nM; in experiment [3] (setting [4]) it was 2 nM; at KRas G12C it was 11 nM.

Take `C=CC(=O)N1C[C@@H]2C(=O)N(C)c3c(c4cc(Cl)c(-c5c(O)cccc5F)nc4n(-c4c(C)ccnc4C(C)C)c3=O)N2C[C@H]1C` (single isomer, unassigned) [Compound Z27-2]: the concentration for half-maximal inhibition (IC50) in experiment [1] is 19000 nM; in experiment [2] it was 1 nM; in experiment [3] (setting [4]), 1 nM; at KRas G12C, 9 nM.

In the case of `C=CC(=O)N1CCN2c3c(c(=O)n(-c4c(C)ccnc4C(C)C)c4nc(-c5c(O)cccc5F)c(F)cc34)N(C)C(=O)[C@H]2C1` (single isomer, unassigned) [Compound Z9-2], the IC50 in experiment [1] is > 10000 nM; in experiment [2], 15 nM; in experiment [3] (setting [4]), 17 nM; on KRas G12C, 115 nM.

On to `C=CC(=O)N1C[C@@H]2C(=O)N(C)c3c(c4cc(F)c(-c5c(O)cccc5F)nc4n(-c4c(C)ccnc4C(C)C)c3=O)N2C[C@H]1C` (single isomer, unassigned) [Compound Z10-2], for which the half-maximal inhibitory concentration (IC50) came to 24600 nM in experiment [1], 4 nM in experiment [2], 8 nM in experiment [3] (setting [4]) and 37 nM at KRas G12C.

For the compound `C=CC(=O)N1CCN2c3c(c(=O)n(-c4c(C)ccnc4C(C)C)c4nc(-c5c(O)cccc5F)c(F)cc34)OC[C@H]2C1` [Compound Z1, (4aR)-3-acryloyl-11-fluoro-10-(2-fluoro-6-hydroxyphenyl)-8-(2-isopropyl-4-methylpyridin-3-yl)-1,2,3,4,4a,5-hexahydropyrazino[1′,2′:4,5][1,4]oxazino[2,3-c][1,8]naphthyridin-7(8H)-one], the IC50 in experiment [1] (Homo sapiens, A549, 120 h) was > 10000 nM; in experiment [2] (Homo sapiens, NCI-H358, 120 h) it was 31 nM; in experiment [3] (setting [4]), 90 nM; at KRas G12C, 255 nM.

As for `C=CC(=O)N1CCN2c3c(c(=O)n(-c4c(C)ccnc4C(C)C)c4nc(-c5c(O)cccc5F)c(Cl)cc34)N(C)C(=O)[C@H]2C1` (single isomer, unassigned) [Compound Z25-2], the 50% inhibitory concentration (IC50) is > 30000 nM in experiment [1]; 3 nM in experiment [2]; 5 nM in experiment [3] (Homo sapiens, 120 h); 25 nM on KRas G12C.

On to `[2H]C([2H])([2H])N1C(=O)[C@H]2CN(C(=O)C=C)CCN2c2c1c(=O)n(-c1c(C)ccnc1C(C)C)c1nc(-c3c(O)cccc3F)c(Cl)cc21` (single isomer, unassigned) [Compound Z26-2], for which the 50% inhibitory concentration (IC50) in experiment [1] was > 30000 nM; in experiment [2], 3 nM; in experiment [3] it was 5 nM; at KRas G12C it was 40 nM.

For `C=CC(=O)N1CCN2c3c(c(=O)n(-c4c(C(C)C)ncnc4C(C)C)c4nc(-c5c(O)cccc5F)c(Cl)cc34)N(C)C(=O)[C@H]2C1` [Compound Z48], the IC50 in experiment [1] (Homo sapiens, A549, 120 h) was > 10000 nM; in experiment [2] (Homo sapiens, NCI-H358, 120 h) it was 3 nM; in experiment [3] (setting [4]) it was 6 nM.
